This assay concerns the target NLRP3 inflammasome (Homo sapiens (Human), UniProt Q96P20). In words: NLRP3 inflammasome inhibitory activity: inhibition of IL-1β production in THP1-Null cells (PMA, LPS, Nigericin). The class given is cell-based. The settings on record: Nigericin 7.5 μmol/L. Here is the method:
The NLRP3 inflammasome inhibitory activity of test compounds were evaluated on the basis of the inhibitory activity of the IL-1β production in THP1-Null cells (Product Number: thp-null, InvivoGen). Cells were maintained for culture in RPMI-1640 media containing 10% (v/v) fetal bovine serum, 25 mmol/L HEPES, 100 U/mL penicillin, 100 μg/mL streptomycin, 100 μg/mL normocin, and 200 μg/mL hygromycin B (set at 37° C., 5% CO2/95% air).
Cells were suspended with media for assay containing 0.5 μmol/L PMA (RPMI-1640 media containing 10% (v/v) fetal bovine serum, 100 U/mL penicillin, and 100 μg/mL streptomycin), and the suspended cells were seeded on Corning (registered trademark) 384-well Flat Clear Bottom Black Polystyrene TC-treated Microplates (25,000 cells/25 μL/well), followed by incubation (set at 37° C., 5% CO2/95% air) overnight. The supernatant of the culture was removed, and thereto was added media for assay (25 μL/well) containing 1 μg/mL Lipopolysaccharides (Product Number: L2654, Sigma-Aldrich (registered trademark)). Then, the culture was further incubated for 3 hours (set at 37° C., 5% CO2/95% air). The supernatant of the culture was removed. Then, a vehicle solution prepared from Opti-MEM (trademark) medium (Product Number: 31985-070, Invitrogen) was added to blank-setting wells and control-setting wells (20 μL/well), followed by incubation for 15 minutes (set at 37° C., 5% CO2/95% air). A solution containing a test compound (20 μL/well) was added to test compound-setting wells. Further, Opti-MEM (trademark) medium containing Nigericin (Product Number: N7143, Sigma-Aldrich (registered trademark)) was added to the control-setting wells and test compound-setting wells (5 μL/well), followed by incubation for 1.5 hours (set at 37° C., 5% CO2/95% air). The final concentration of Nigericin was adjusted to be 7.5 μmol/L. 5 μL/well of Opti-MEM (trademark) medium was added to the blank-setting wells. The supernatant of the culture was cryonically stored (set at −20° C.) until measurement of IL-1β.
The amount of IL-1β in the culture supernatant was quantitated with AlphaLISA (registered trademark) Human IL-1β Detection Kit (Product Number: AL220C, Perkin Elmer). Fluorescence intensity was measured with a microplate reader EnSpier (Model number: 2300-00J, Perkin Elmer) or EnSight (Model number: HH34000000, Perkin Elmer) according to procedure manuals attached thereto. Inhibition rates of the test compound-setting wells were calculated on the basis of 100% for the blank-setting wells and 0% for the control-setting wells. IC50 values (i.e., 50% inhibitory concentrations) of the test compounds were calculated by logistic regression analysis.
Chain of NLRP3 inflammasome (Q96P20 whole entry): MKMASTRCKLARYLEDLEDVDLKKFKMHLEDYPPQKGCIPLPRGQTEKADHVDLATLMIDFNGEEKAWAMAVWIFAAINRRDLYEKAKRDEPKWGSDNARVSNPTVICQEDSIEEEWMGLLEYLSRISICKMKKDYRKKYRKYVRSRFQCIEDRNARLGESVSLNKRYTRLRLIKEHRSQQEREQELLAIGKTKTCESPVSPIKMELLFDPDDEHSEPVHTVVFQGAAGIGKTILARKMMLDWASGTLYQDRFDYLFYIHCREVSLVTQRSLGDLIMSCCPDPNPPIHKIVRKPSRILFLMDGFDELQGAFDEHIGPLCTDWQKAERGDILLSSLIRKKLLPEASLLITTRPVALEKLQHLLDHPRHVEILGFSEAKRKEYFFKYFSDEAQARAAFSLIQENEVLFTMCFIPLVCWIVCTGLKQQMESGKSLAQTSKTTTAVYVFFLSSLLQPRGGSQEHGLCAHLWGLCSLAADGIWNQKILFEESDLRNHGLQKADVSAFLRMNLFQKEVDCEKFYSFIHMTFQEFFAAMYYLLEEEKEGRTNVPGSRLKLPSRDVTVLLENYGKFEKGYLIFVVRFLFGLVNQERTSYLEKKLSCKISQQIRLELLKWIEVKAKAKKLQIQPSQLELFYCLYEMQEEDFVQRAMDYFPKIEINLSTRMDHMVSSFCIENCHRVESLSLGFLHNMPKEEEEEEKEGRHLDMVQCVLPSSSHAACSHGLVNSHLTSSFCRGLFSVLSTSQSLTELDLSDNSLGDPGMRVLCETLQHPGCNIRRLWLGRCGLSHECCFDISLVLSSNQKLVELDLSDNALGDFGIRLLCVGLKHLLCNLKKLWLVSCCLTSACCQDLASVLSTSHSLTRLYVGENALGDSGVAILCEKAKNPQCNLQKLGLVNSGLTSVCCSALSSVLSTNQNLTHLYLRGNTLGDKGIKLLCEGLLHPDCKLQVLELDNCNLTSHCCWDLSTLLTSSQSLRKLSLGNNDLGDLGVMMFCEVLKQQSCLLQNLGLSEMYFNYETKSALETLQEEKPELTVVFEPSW
The IC50 is the concentration that gives 50% inhibition. A lower IC50 goes with greater potency in that assay. Regarding `Cc1cc(-c2nc3nn(-c4c(C)cc(Br)cc4C)cc3c(=O)[nH]2)no1` [Example 25], half-maximal inhibition (IC50) required 15 nM.
With `Cc1cc(C(F)(F)F)cc(C)c1-n1cc2c(=O)[nH]c(-c3ccncc3F)nc2n1` [Example 33] the figure was 22 nM; with `Cc1cc(Br)cc(C)c1-n1cc2c(=O)[nH]c(-c3ccncn3)nc2n1` [Example 12, 2-(4-bromo-2,6-dimethylphenyl)-6-(pyrimidine-4-yl)-2,5-dihydro-4H-pyrazolo[3,4-d]pyrimidin-4-one], 7.8 nM; with `Cc1cccc(C)c1-n1cc2c(=O)[nH]c(-c3ccn(C)n3)nc2n1` [Example 44], 880 nM.
With `Cc1cc(Br)cc(C)c1-n1cc2c(=O)[nH]c(-c3cn(C)nn3)nc2n1` [Example 21] the figure was 13 nM; with `Cc1cc(C2CC2)cc(C)c1-n1cc2c(=O)[nH]c(-c3ccnn3C)nc2n1` [Example 5], 23 nM.
For `Cc1cc(C(F)(F)F)cc(C)c1-n1cc2c(=O)[nH]c(-c3ccn(C)n3)nc2n1` [Example 29], the IC50 came to 69 nM.
The result for `Cc1cc(Br)cc(C)c1-n1cc2c(=O)[nH]c(-c3ccncc3F)nc2n1` [Example 35] reads 24 nM; that for `Cc1cn(C)nc1-c1nc2nn(-c3c(C)cc(C4CC4)cc3C)cc2c(=O)[nH]1` [Example 6], 50 nM; that for `Cc1cc(C2CC2)cc(C)c1-n1cc2c(=O)[nH]c(-c3ccncn3)nc2n1` [Example 43], 4.3 nM.
In turn, `Cc1cc(C2CC2)cc(C)c1-n1cc2c(=O)[nH]c(-c3cnn4c3OCCC4)nc2n1` [Example 53] gave a concentration for half-maximal inhibition (IC50) of 240 nM.
`Cc1cc(Br)cc(C)c1-n1cc2c(=O)[nH]c(-c3cnn(C)c3)nc2n1` [Example 11] returned an IC50 of 18 nM.
With `Cc1cc(C(C)(F)F)cc(C)c1-n1cc2c(=O)[nH]c(-c3cscn3)nc2n1` [Example 58] the figure was 3 nM.
The result for `Cc1ccccc1-n1cc2c(=O)[nH]c(-c3ccn(C)n3)nc2n1` [Example 1] reads 3800 nM.
With `COCc1cc(C2CC2)cc(C)c1-n1cc2c(=O)[nH]c(-c3ccn(C)n3)nc2n1` [Example 40] the figure was 6.3 nM; with `COc1cc(C)c(-n2cc3c(=O)[nH]c(-c4ccn(C)n4)nc3n2)c(C)c1` [Example 2], 64 nM; with `Cc1cc(C2CC2)cc(C)c1-n1cc2c(=O)[nH]c(-c3cscn3)nc2n1` [Example 52], 2 nM.
In turn, `Cc1cc(C2CC2)cc(CO)c1-n1cc2c(=O)[nH]c(-c3ccn(C)n3)nc2n1` [Example 49] returned a half-inhibitory concentration (IC50) of 37 nM.
With `Cc1cc(Br)cc(C)c1-n1cc2c(=O)[nH]c(-c3ccnc(C(F)(F)F)n3)nc2n1` [Example 32] the figure was 77 nM.
`Cc1cc(Br)cc(C)c1-n1cc2c(=O)[nH]c(-c3ccn(C)n3)nc2n1` [Example 10] showed an IC50 of 20 nM.
With `Cc1cc(C2CC2)cc(C)c1-n1cc2c(=O)[nH]c(-c3ccn(C4COC4)n3)nc2n1` [Example 19] the figure was 62 nM.
The result for `Cc1cc(C(C)(F)F)cc(C)c1-n1cc2c(=O)[nH]c(-c3ccn(C)n3)nc2n1` [Example 8, 2-{4-(1,1-difluoroethyl)-2,6-dimethylphenyl}-6-(1-methyl-1H-pyrazol-3-yl)-2,5-dihydro-4H-pyrazolo[3,4-d]pyrimidin-4-one] reads 33 nM; that for `Cn1ccc(-c2nc3nn(-c4cc5c(cc4Cl)CCC5)cc3c(=O)[nH]2)n1` [Example 59, 2-(6-chloro-2,3-dihydro-1H-inden-5-yl)-6-(1-methyl-1H-pyrazol-3-yl)-2,5-dihydro-4H-pyrazolo[3,4-d]pyrimidin-4-one], 34 nM.
The result for `COc1nccc(-c2nc3nn(-c4c(C)cc(Br)cc4C)cc3c(=O)[nH]2)n1` [Example 34] reads 27 nM; that for `Cc1cc(C2CC2)cc(C)c1-n1cc2c(=O)[nH]c(-c3cc4n(n3)CCC4)nc2n1` [Example 57], 9 nM; that for `COCCn1ccc(-c2nc3nn(-c4c(C)cc(Br)cc4C)cc3c(=O)[nH]2)n1` [Example 16], 47 nM.

The values are drawn from US20250114361A1, “PYRAZOLOPYRIMIDINE COMPOUND AND PHARMACEUTICAL USE THEREOF” (Japan Tobacco Inc., priority 2022, published 2025).
